Square brackets hold non-standard residues; d marks the D form. Peptide text beside a SMILES is read from it. Sar = CNCC(=O)O

This series deals with Brush Border Membrane Vesicle (BBMV) enzymes. Kind of series: in vitro. The class given is in vitro ADME. The following applies: rat BBMV. As for the experimental part:
A few of the peptides from the library were selected for further evaluation. The TAPS c(2-6) representative MOP agonists, TAPS c(6-2) and TAPS c(4-2) were not evaluated for opioid receptor interaction, and two non-active cyclic peptides, TAPS c(3-2) and TAPS c(6-6), having a smaller and larger ring sizes, respectively. The backbone-cyclic peptide stability in the GI tract was evaluated using rat origin pooled Brush Border Membrane Vesicle (BBMV) enzymes and were compared to the stability of linear TAPS (Figure 6).
1. Mass spectrometry analyses … 1
2. Metabolic Stability in BBMVs … 1
2.1 Preparation of BBMVs … 1
2.2 Experimental protocol for BBMVs … 2
3.1 In vitro cell based model: Caco-2 cell culture permeability studies … 2 3.1.1 Growth and Maintenance of the Cells: … 2
3.1.2 Preparation of the Cells for Transport Studies: … 2
3.2 Experimental Protocol … 2
3.3 Data Analysis of In Vitro Studies … 3
3.4 Statistical Analysis of the In Vitro Studies … 3
3.5 Statistical Analysis of Pharmacodynamic Studies … 3
3.6 Analytical Methods for Compound Concentration … 3
5. Supplementary Figures … 6
6. Supplementary Tables … 7
1. Mass spectrometry analyses
Mass spectra were acquired on a LCQ Fleet Ion Trap mass spectrometer (Thermo Scientific) utilizing electrospray ionization. For high resolution mass spectrometry (HRMS) analyses, the spectra were recorded on an Agilent 6550 iFunnel Q-TOF LC/MS system.
2. […]

For the molecule `CN(CC(=O)O)C(=O)[C@H](Cc1ccccc1)NC(=O)[C@@H](CCCN=C(N)N)NC(=O)[C@@H](N)Cc1ccc(O)cc1` [Linear, Tyr-D-Arg-Phe-Sar] (H-Y[dR]F[Sar]-OH), the metabolised at 0.5 h (male, Wistar, kidney or brush border membranes, pH 7.4, after treatment for 30 min, read-out: peptide degraded by intestinal enzymes) is above 80%. The “peptide fate with intestinal enzymes” value (after 60 min) is “decomposed”.

The values are drawn from article PMC7689096, “Cyclizing Painkillers: Development of Backbone-Cyclic TAPS Analogs” (Frontiers in Chemistry, 2020).
